Source: patent US20080170990A1, “Methods for Myocardial Imaging in Patients Having a History of Pulmonary Disease” (CV THERAPEUTICS, INC., priority 2006, published 2008)

Tests used:
awake dogs = test: Blood flow in coronary, mesenteric, hind limb and renal vascular beds (Example 8); format: in vivo, dog
Text: In this study the vasodilator effects of Regadenoson were compared to those of ADO in different vascular beds in awake dogs. Dogs were chronically instrumented for measurements of the blood flow in coronary (CBF), mesenteric (MBF), hind limb (LBF), and renal (RBF) vascular beds, and hemodynamics.

[1] = test system: subjects undergoing stress/rest MPI; test: Stress/rest SPECT myocardial perfusion imaging, adenosine vs Regadenoson (Example 6); format: in vivo, human; conditions: 4D MSPECT; p=n.s.
Description: To determine the ability of Regadenoson to produce coronary hyperemia and accurately detect CAD, 35 subjects (26 men, 9 women; 67±10 years) underwent both A and Regadenoson stress/rest MPI, with 10.0±9.1 days between studies. […] Regadenoson [400 mcg (n=18), 500 mcg (n=17)] was administered as an IV bolus immediately followed by a saline flush, and then a Tc-99m radiopharmaceutical [sestamibi (n=34), tetrofosmin (n=1)]. SPECT images were uniformly processed, intermixed with control studies (normal and fixed-only defects), and interpreted by three observers in a blinded fashion using a 17-segment model. Quantitative analysis was also performed using 4D MSPECT. In addition to three separate readings, a consensus interpretation was performed and then a direct, same-screen comparison of A and REGADENASON images undertaken to determine relative differences, using 5 regions per study.

[2] = test system: patients undergoing a clinically indicated coronary catheterization; test: Coronary blood flow velocity (CBFv) by Doppler flow wire after IV bolus, open label study (Example 1); format: in vivo, human
Description: The purpose of this open label study was to determine the magnitude and duration of effect of Regadenoson (10-500 μg) on CBFv in humans.
Patients undergoing a clinically indicated coronary catheterization with no more than a 70% stenosis in any coronary artery and no more than a 50% stenosis of the study vessel had CBFv determined by Doppler flow wire. Study subjects were selected after measuring baseline and peak CBFv after an intracoronary (IC) injection of 18 μg of Ado. Twenty-three patients, who were identified as meeting the study criteria of having a peak to baseline CBFv ration of ≧2.5 in response to Adenosine, received a rapid (≦10 sec) peripheral IV bolus of Regadenoson; Doppler signals were stable and interpretable over the time-course of the increase in CBFv in 17 patients.

CNC(=O)c1cnn(-c2nc(N)c3ncn([C@@H]4O[C@H](CO)[C@@H](O)[C@H]4O)c3n2)c1 [Regadenoson, (1-{9-[(4S,2R,3R,5R)-3,4-dihydroxy-5-(hydroxymethyl)oxolan-2-yl]-6-aminopurin-2-yl}pyrazol-4-yl)-N-methylcarboxamide]
potency relative to adenosine in increasing coronary blood flow velocity (CBFv) (awake dogs; awake dogs): > 100 fold | increase in hind limb blood flow (LBF) (awake dogs; mean ±SE, n=6, FIG. 18): smaller increase in LBF than ADO | summed score following stress, quantitative analysis [1]: 133.6±1.6 | maximal decrease in systolic BP ([2]; 500 μg IV bolus): 8.7±7.6 | maximal increase in HR ([2]; 500 μg IV bolus): 18.7±4.0 | adverse events (AEs) ([2]; 3 patients receiving the 500 μg dose): No AEs | adverse events (AEs) ([2]; 10-500 μg IV bolus, nausea, flushing, headache, mild and self-limited): infrequent | peak to baseline CBFv ratio ([2]; Regadenoson 100, 300 and 500 μg IV bolus, mean ±SD): 3.2±0.6
